The results in this text go back to PubChem BioAssay (NCI).

What all share (test): NCI tumour cell line growth inhibition, 48 h
Assay [1] concerns NCI-H522 lung.
Assay [2] relates to TK-10 renal.
Assay [3] deals with SN12C renal.
For assay [4], the system named is OVCAR-8 ovarian.
Assay [5] concerns SW-620 colon.
In assay [6] the test system is EKVX NSCLC.
The test system of assay [7] is SK-MEL-5 melanoma.
Assay [8] relates to SK-MEL-2 melanoma.
For assay [9], the system named is SF-539 CNS.

Structures are written as SMILES.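 Exposure lasted 48 hours, with cells grown in 96-well plates and compounds tested at five concentrations. Definition used: TGI = concentration required for complete inhibition of growth.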

For the molecule `COc1ccc(C2=NN(c3ccccc3)C[N+](c3ccc(OC)cc3)=N2)cc1`, the TGI was 30 µM in assay [1]; greater than 100 µM in assay [2]; greater than 100 µM in [3]; greater than 100 µM in [4]; 61 µM in assay [5]; greater than 100 µM in assay [6]. The TGI in assay [7] was 29.8 µM.

Consider `COc1ccc(OC)c(NC(=O)CCC/C(CC(=O)c2ccc(O)c(OC)c2)=N\Nc2ccc([N+](=O)[O-])cc2)c1`, for which the TGI in assay [1], in [2], in assay [8], in assay [3], in assay [9] and in assay [4] was greater than 100 µM throughout. Moreover, the TGI in [5], in assay [6] and in [7] was greater than 100 µM each time.

As for `CN(C(=O)c1ccco1)C(=S)N1CCN(c2ccccc2)CC1`, the TGI in assay [1], in assay [2], in assay [8], in [3], in assay [9] and in assay [4] was greater than 100 µM each time. Besides, the TGI in assay [5] and in assay [7] was greater than 100 µM each time.

Take `Cc1ccccc1NC(=O)C(=O)CC(=O)c1c(C)n([O-])c2ccccc2[n+]1=O`: the TGI in [8], in assay [3], in [9], in assay [4], in [5] and in assay [6] was greater than 100 µM throughout.

On to `CCOC(=O)C(=Cc1cccnc1C)C(=O)OCC`, for which the TGI in assay [1] was found to be 11.7 µM; in [2] it was 25.5 µM; in assay [8], 16 µM; in assay [3], 16.2 µM; in assay [9], 33.3 µM; in [4] it was 16.9 µM. The TGI is 17.5 µM in [5], 42.1 µM in assay [6] and 25.1 µM in [7].

For the molecule `Cc1cccc(C(C)C)c1NC(=O)CC1C(=O)Nc2ccccc2S1(=O)=O` (stereo not drawn), the TGI in assay [1] is 31.5 µM; in assay [2], 70.1 µM; in assay [8] it was greater than 62 µM; in assay [3], greater than 59.4 µM; in assay [9] it was 14.5 µM; in assay [4] it was greater than 59 µM. The TGI in assay [5] was 30.4 µM; in [6], greater than 53.8 µM; in assay [7], 46.4 µM.

Regarding `O=C1CC(S(=O)(=O)O)C=C1Nc1cccc(Cl)c1` (stereo not drawn), the TGI in assay [1], in assay [2], in assay [8], in assay [3], in assay [9] and in assay [4] was greater than 100 µM throughout. Besides, the TGI in assay [5], in assay [6] and in assay [7] was greater than 100 µM throughout.

For the molecule `C1=C2/CC[C@H](Sc3ccccc3)[C@H]2C2(CCCCC/1)OCCO2`, the TGI in assay [1] is 39.6 µM; in [2], greater than 100 µM; in [8] it was 33.2 µM; in [3], greater than 100 µM; in assay [9] it was greater than 100 µM; in assay [4], greater than 100 µM. The figures for the TGI in assay [5], in assay [6] and in [7] were greater than 100 µM, 54.5 µM and 59.1 µM, respectively.

Regarding `N#CC(c1nc2ccccc2nc1Cl)S(=O)(=O)c1ccccc1` (stereo not drawn), the TGI in assay [1], in [2], in assay [8], in assay [3], in assay [9] and in [4] was greater than 100 µM in each case. Moreover, the TGI in assay [5], in assay [6] and in [7] was greater than 100 µM in each case.

Regarding `O=CN/C=C/c1ccc(O)c(O)c1`, the TGI in assay [1], in assay [2], in [8], in assay [3], in assay [9] and in [4] was greater than 100 µM throughout. The TGI in assay [5] and in [6] was greater than 100 µM in each case.

As to `O=CC1CCCc2ccccc21` (stereo not drawn), the TGI was greater than 100 µM in assay [1]; greater than 100 µM in assay [2]; greater than 100 µM in assay [8]; greater than 100 µM in assay [3]; greater than 100 µM in assay [4]; greater than 56.6 µM in assay [5]. The TGI in [6] and in assay [7] was greater than 100 µM in each case.

As for `COc1ccc(C(C#N)Cc2cc(OC)c(OC)c(OC)c2)cc1` (stereo not drawn), the TGI was 71.9 µM in [1]; greater than 100 µM in assay [2]; greater than 100 µM in assay [3]; greater than 100 µM in [9]; greater than 100 µM in assay [4]; greater than 100 µM in [5]. Also, the TGI in [6] was greater than 100 µM; in [7], 37.3 µM.

As for `Cc1ccc(N2C(=O)C3C=CC(n4[nH]c(=O)n(Cc5ccccc5)c4=O)CC3C2=O)cc1` (stereo not drawn), the TGI in [1], in assay [2], in assay [8], in assay [3], in [9] and in assay [4] was greater than 100 µM in each case. Further, the TGI in assay [5], in assay [6] and in assay [7] was greater than 100 µM each time.

On to `COc1ccc(C(=O)C(c2ccc(OC)cc2)C2(O)C(=O)Nc3c2ccc(Cl)c3C)cc1` (stereo not drawn), for which the TGI in assay [1], in assay [2], in assay [8], in assay [3], in assay [4] and in assay [5] was greater than 100 µM throughout. Besides, the TGI in assay [6] and in assay [7] was greater than 100 µM in each case.

For the molecule `COC(=O)C1=CC2C(=O)OC1CC2C#N` (stereo not drawn), the TGI in assay [1], in [2], in [3], in assay [9], in assay [4] and in assay [5] was greater than 100 µM throughout. In assay [7], this molecule had a TGI greater than 100 µM.
